# Results from patent US12065442B2, “Tropomyosin receptor kinase (TRK) degradation compounds and methods of use” (Cullgen (Shanghai), Inc., priority 2018, dated 2024).
# Tested on: KM12 cells
# Assay: Cell viability assay (CellTiter-Glo) in KM12 cells
# Type: cell-based
# Settings: Homo sapiens, 72 h; Table 4; KM12 cell viability, CellTiter-Glo, 3 days; read-out: IC50
row,SMILES,IC50 [nM]
1,"O=C1CCC(N2Cc3cc(NCC4CN(c5cccc(-c6cnc7ccc(N8CCC[C@@H]8c8cccc(F)c8)nn67)n5)C4)ccc3C2=O)C(=O)N1 (stereo partly drawn) [TR-210, 3-(5-(((1-(6-(6-((R)-2-(3-Fluorophenyl)pyrrolidin-1-yl)imidazo[1,2-b]pyridazin-3-yl)pyridin-2-yl)azetidin-3-yl)methyl)amino)-1-oxoisoindolin-2-yl)piperidine-2,6-dione]",14
2,"O=C1CCC(N2C(=O)c3ccc(N4CC(C(=O)N5CCN(c6cccc(-c7cnc8ccc(N9CCC[C@@H]9c9cccc(F)c9)nn78)n6)CC5)C4)cc3C2=O)C(=O)N1 (stereo partly drawn) [TR-211, 2-(2,6-Dioxopiperidin-3-yl)-5-(3-(4-(6-(6-((R)-2-(3-fluorophenyl)pyrrolidin-1-yl)imidazo[1,2-b]pyridazin-3-yl)pyridin-2-yl)piperazine-1-carbonyl)azetidin-1-yl)isoindoline-1,3-dione]",2
3,"O=C1CCC(N2Cc3cc(NC4CCN(c5cccc(-c6cnc7ccc(N8CCC[C@@H]8c8cccc(F)c8)nn67)n5)CC4)ccc3C2=O)C(=O)N1 (stereo partly drawn) [TR-212, 3-(5-((1-(6-(6-((R)-2-(3-fluorophenyl)pyrrolidin-1-yl)imidazo[1,2-b]pyridazin-3-yl)pyridin-2-yl)piperidin-4-yl)amino)-1-oxoisoindolin-2-yl)piperidine-2,6-dione]",15.8
4,"O=C1CCC(N2C(=O)c3ccc(NCC(=O)NC4CN(c5cccc(-c6cnc7ccc(N8CCC[C@@H]8c8cccc(F)c8)nn67)n5)C4)cc3C2=O)C(=O)N1 (stereo partly drawn) [TR-213, 2-((2-(2,6-Dioxopiperidin-3-yl)-1,3-dioxoisoindolin-5-yl)amino)-N-(1-(6-(6-((R)-2-(3-fluorophenyl)pyrrolidin-1-yl)imidazo[1,2-b]pyridazin-3-yl)pyridin-2-yl)azetidin-3-yl)acetamide]",22.7
5,"COc1ccc(CN(CCN2CCN(c3cccc(-c4cnc5ccc(N6CCC[C@@H]6c6cccc(F)c6)nn45)n3)CC2)c2ccc3c(c2)C(=O)N(C2CCC(=O)NC2=O)C3=O)cc1 (stereo partly drawn) [TR-214, 2-(2,6-Dioxo-3-piperidyl)-5-(2-(4-(6-(6-((2R)-2-(3-fluorophenyl)pyrrolidin-1-yl)imidazo[1,2-b]pyridazin-3-yl)-2-pyridyl)piperazin-1-yl)ethyl-((4-methoxyphenyl)methyl)amino)isoindoline-1,3-dione]",2.7
6,"O=C1CCC(N2C(=O)c3ccc(NC(=O)C4CCN(c5cccc(-c6cnc7ccc(N8CCC[C@@H]8c8cccc(F)c8)nn67)n5)CC4)cc3C2=O)C(=O)N1 (stereo partly drawn) [TR-215, N-(2-(2,6-Dioxopiperidin-3-yl)-1,3-dioxoisoindolin-5-yl)-1-(6-(6-((R)-2-(3-fluorophenyl)pyrrolidin-1-yl)imidazo[1,2-b]pyridazin-3-yl)pyridin-2-yl)piperidine-4-carboxamide]",> 500
7,"Cn1c(=O)n(C2CCC(=O)NC2=O)c2cccc(NCCN3CCN(c4cccc(-c5cnc6ccc(N7CCC[C@@H]7c7cccc(F)c7)nn56)n4)CC3)c21 (stereo partly drawn) [TR-216, 3-[4-[2-[4-[6-[6-[(2R)-2-(3-Fluorophenyl)pyrrolidin-1-yl]imidazo[1,2-b]pyridazin-3-yl]-2-pyridyl]piperazin-1-yl]ethylamino]-3-methyl-2-oxo-benzimidazol-1-yl]piperidine-2,6-dione]",3.6
8,"Cn1c(=O)n(C2CCC(=O)NC2=O)c2cccc(NCCCN3CCN(c4cccc(-c5cnc6ccc(N7CCC[C@@H]7c7cccc(F)c7)nn56)n4)CC3)c21 (stereo partly drawn) [TR-217, 3-[4-[3-[4-[6-[6-[(2R)-2-(3-Fluorophenyl)pyrrolidin-1-yl]imidazo[1,2-b]pyridazin-3-yl]-2-pyridyl]piperazin-1-yl]propylamino]-3-methyl-2-oxo-benzimidazol-1-yl]piperidine-2,6-dione]",4
9,"O=C1CCC(N2Cc3cc(NCC4CCN(c5cccc(-c6cnc7ccc(N8CCC[C@@H]8c8cccc(F)c8)nn67)n5)CC4)ccc3C2=O)C(=O)N1 (stereo partly drawn) [TR-218, 3-(5-(((1-(6-(6-((R)-2-(3-Fluorophenyl)pyrrolidin-1-yl)imidazo[1,2-b]pyridazin-3-yl)pyridin-2-yl)piperidin-4-yl)methyl)amino)-1-oxoisoindolin-2-yl)piperidine-2,6-dione]",15.3
10,"O=C1CCC(N2Cc3cc(C#CC4CN(c5cccc(-c6cnc7ccc(N8CCC[C@@H]8c8cccc(F)c8)nn67)n5)C4)ccc3C2=O)C(=O)N1 (stereo partly drawn) [TR-219, 3-(5-((1-(6-(6-((R)-2-(3-Fluorophenyl)pyrrolidin-1-yl)imidazo[1,2-b]pyridazin-3-yl)pyridin-2-yl)azetidin-3-yl)ethynyl)-1-oxoisoindolin-2-yl)piperidine-2,6-dione]",44.9
11,"Cn1c(=O)n(C2CCC(=O)NC2=O)c2ccc(NCCN3CCN(c4cccc(-c5cnc6ccc(N7CCC[C@@H]7c7cccc(F)c7)nn56)n4)CC3)cc21 (stereo partly drawn) [TR-220, 3-(5-((2-(4-(6-(6-((R)-2-(3-Fluorophenyl)pyrrolidin-1-yl)imidazo[1,2-b]pyridazin-3-yl)pyridin-2-yl)piperazin-1-yl)ethyl)amino)-3-methyl-2-oxo-2,3-dihydro-1H-benzo[d]imidazol-1-yl)piperidine-2,6-dione]",5.5
12,"Cn1c(=O)n(C2CCC(=O)NC2=O)c2ccc(NCCCN3CCN(c4cccc(-c5cnc6ccc(N7CCC[C@@H]7c7cccc(F)c7)nn56)n4)CC3)cc21 (stereo partly drawn) [TR-221, 3-(5-((3-(4-(6-(6-((R)-2-(3-Fluorophenyl)pyrrolidin-1-yl)imidazo[1,2-b]pyridazin-3-yl)pyridin-2-yl)piperazin-1-yl)propyl)amino)-3-methyl-2-oxo-2,3-dihydro-1H-benzo[d]imidazol-1-yl)piperidine-2,6-dione]",8.5
13,"O=C1CCC(N2C[C@H](c3cccc(C#CCN4CCN(c5cccc(-c6cnc7ccc(N8CCC[C@@H]8c8cccc(F)c8)nn67)n5)CC4)c3)OC2=O)C(=O)N1 (stereo partly drawn) [TR-223, 3-((S)-5-(3-(3-(4-(6-(6-((R)-2-(3-Fluorophenyl)pyrrolidin-1-yl)imidazo[1,2-b]pyridazin-3-yl)pyridin-2-yl)piperazin-1-yl)prop-1-yn-1-yl)phenyl)-2-oxooxazolidin-3-yl)piperidine-2,6-dione]",11.3
14,"O=C1CCC(N2C[C@H](c3ccc(C#CCN4CCN(c5cccc(-c6cnc7ccc(N8CCC[C@@H]8c8cccc(F)c8)nn67)n5)CC4)cc3)OC2=O)C(=O)N1 (stereo partly drawn) [TR-224, 3-((S)-5-(4-(3-(4-(6-(6-((R)-2-(3-Fluorophenyl)pyrrolidin-1-yl)imidazo[1,2-b]pyridazin-3-yl)pyridin-2-yl)piperazin-1-yl)prop-1-yn-1-yl)phenyl)-2-oxooxazolidin-3-yl)piperidine-2,6-dione]",9.9
15,"O=C1CCC(N2C(=O)c3ccc(N4CCC(CN5CCN(c6cccc(-c7cnc8ccc(N9CCC[C@@H]9c9cccc(F)c9)nn78)n6)CC5)C4)cc3C2=O)C(=O)N1 (stereo partly drawn) [TR-225, 2-(2,6-Dioxopiperidin-3-yl)-5-(3-((4-(6-(6-((R)-2-(3-fluorophenyl)pyrrolidin-1-yl)imidazo[1,2-b]pyridazin-3-yl)pyridin-2-yl)piperazin-1-yl)methyl)pyrrolidin-1-yl)isoindoline-1,3-dione]",8.8
16,"O=C1CCC(N2C(=O)c3ccc(N4CCC(CN5CCN(c6cccc(-c7cnc8ccc(N9CCC[C@@H]9c9cccc(F)c9)nn78)n6)CC5)CC4)cc3C2=O)C(=O)N1 (stereo partly drawn) [TR-226, 2-(2,6-Dioxopiperidin-3-yl)-5-(4-((4-(6-(6-((R)-2-(3-fluorophenyl)pyrrolidin-1-yl)imidazo[1,2-b]pyridazin-3-yl)pyridin-2-yl)piperazin-1-yl)methyl)piperidin-1-yl)isoindoline-1,3-dione]",13.8
17,"O=C1CCC(n2c(=O)n(CCN3CCN(c4cccc(-c5cnc6ccc(N7CCC[C@@H]7c7cccc(F)c7)nn56)n4)CC3)c3ccccc32)C(=O)N1 (stereo partly drawn) [TR-227, 3-(3-(2-(4-(6-(6-((R)-2-(3-Fluorophenyl)pyrrolidin-1-yl)imidazo[1,2-b]pyridazin-3-yl)pyridin-2-yl)piperazin-1-yl)ethyl)-2-oxo-2,3-dihydro-1H-benzo[d]imidazol-1-yl)piperidine-2,6-dione]",23.6
18,"O=C1CCC(n2c(=O)n(CCCN3CCN(c4cccc(-c5cnc6ccc(N7CCC[C@@H]7c7cccc(F)c7)nn56)n4)CC3)c3ccccc32)C(=O)N1 (stereo partly drawn) [TR-228, 3-(3-(3-(4-(6-(6-((R)-2-(3-Fluorophenyl)pyrrolidin-1-yl)imidazo[1,2-b]pyridazin-3-yl)pyridin-2-yl)piperazin-1-yl)propyl)-2-oxo-2,3-dihydro-1H-benzo[d]imidazol-1-yl)piperidine-2,6-dione]",56.3
19,"O=C1CCC(N2C[C@H](c3ccc(CN4CCN(c5cccc(-c6cnc7ccc(N8CCC[C@@H]8c8cccc(F)c8)nn67)n5)CC4)cc3)OC2=O)C(=O)N1 (stereo partly drawn) [TR-229, 3-((S)-5-(4-((4-(6-(6-((R)-2-(3-Fluorophenyl)pyrrolidin-1-yl)imidazo[1,2-b]pyridazin-3-yl)pyridin-2-yl)piperazin-1-yl)methyl)phenyl)-2-oxooxazolidin-3-yl)piperidine-2,6-dione]",50.8
20,"O=C1CCC(N2C(=O)c3ccc(N4CC(CN5CCC(N6CCC=C(c7cnc8ccc(N9CCC[C@@H]9c9cccc(F)c9)nn78)C6)CC5)C4)cc3C2=O)C(=O)N1 (stereo partly drawn) [TR-230, 2-(2,6-Dioxopiperidin-3-yl)-5-(3-((4-(5-(6-((R)-2-(3-fluorophenyl)pyrrolidin-1-yl)imidazo[1,2-b]pyridazin-3-yl)-3,6-dihydropyridin-1(2H)-yl)piperidin-1-yl)methyl)azetidin-1-yl)isoindoline-1,3-dione]",> 500
21,"O=C1CCC(N2C(=O)c3ccc(N4CC(CN5CCN(c6ccc(C(=O)Nc7n[nH]c8ccc(Cc9cc(F)cc(F)c9)cc78)c(NC7CCOCC7)c6)CC5)C4)cc3C2=O)C(=O)N1 (stereo not shown) [TR-231, N-(5-(3,5-Difluorobenzyl)-1H-indazol-3-yl)-4-(4-((1-(2-(2,6-dioxopiperidin-3-yl)-1,3-dioxoisoindolin-5-yl)azetidin-3-yl)methyl)piperazin-1-yl)-2-((tetrahydro-2H-pyran-4-yl)amino)benzamide]",3
22,"O=C1CCC(N2C(=O)c3ccc(NCCN4CCN(c5ccc(C(=O)Nc6n[nH]c7ccc(Cc8cc(F)cc(F)c8)cc67)c(NC6CCOCC6)c5)CC4)cc3C2=O)C(=O)N1 (stereo not shown) [TR-232, N-(5-(3,5-Difluorobenzyl)-1H-indazol-3-yl)-4-(4-(2-((2-(2,6-dioxopiperidin-3-yl)-1,3-dioxoisoindolin-5-yl)amino)ethyl)piperazin-1-yl)-2-((tetrahydro-2H-pyran-4-yl)amino)benzamide]",2.6
